Laboratory results published in Sander's compilation of Henry's law constants (doi:10.1584/jpestics.18.3_201).

Experiment: Henry solubility constant Hcp at 298.15 K (mol/(m3 Pa))
Conditions: reference: Watanabe (1993)

SMILES	Henry solubility constant Hcp
CCN(CC)C(=O)SCc1ccc(Cl)cc1 [S-(4-chlorobenzyl) diethylthiocarbamate]	19
CCCCOCN(C(=O)CCl)c1c(CC)cccc1CC [butachlor]	160
CC(C)OC(=O)Nc1cccc(Cl)c1 [chlorpropham]	23
CCOP(=S)(OCC)Oc1cc(C)nc(C(C)C)n1 [diazinon]	11
COP(=S)(OC)Oc1ccc([N+](=O)[O-])c(C)c1 [fenitrothion]	83
CCC(C)c1ccccc1OC(=O)NC (stereo not given) [fenobucarb]	150
CC(C)OP(=O)(OC(C)C)SCc1ccccc1 [iprobenphos]	260
CCOC(=O)CC(SP(=S)(OC)OC)C(=O)OCC (stereo not given) [malathion]	670
CCCN(CCC)c1c([N+](=O)[O-])cc(C(F)(F)F)cc1[N+](=O)[O-] [trifluralin]	0.91
CNC(=O)Oc1ccc(C)c(C)c1 [xylylcarb]	91
